Laboratory results taken from ChEMBL document CHEMBL4130357, “Developing potential agents against atherosclerosis: Design, synthesis and pharmacological evaluation of novel dual inhibitors of oxidative stress and Squalene Synthase activity” (Eur J Med Chem, 2017).
Active and inactive are the calls of the source. No cut-off for these calls is given here.

Columns and labels:
Liver = assay: Antioxidant activity in heat-inactivated Fischer-344 rat hepatic microsomes assessed as protection against Fe2+/ascorbate-induced lipid peroxidation after 45 mins by TBAR-based spectrophotometry; type: functional, microsome; conditions: Fischer-344, Liver, 0.75 h
[1] = Antioxidant activity assessed as DPPH radical scavenging activity measured at 30 to 60 mins by UV-Visible spectrophotometric method; type: functional
Mus musculus [2] = assay: Anti-diabetic activity in HDF/STZ-induced obesity-diabetes type 2 SKH-2 mouse model assessed as reversal of body weight gain at 56 umol/kg, ip administered twice daily until 23 days measured once per week; type: functional, organism-based
Mus musculus [3] = assay: Antihyperlipidemic activity in HDF/STZ-induced obesity-diabetes type 2 SKH-2 mouse model assessed as decrease in plasma LDL levels at 56 umol/kg, ip administered twice daily measured on day 22 and day 53 relative to untreated control; type: functional; parameters: scale not given: the % may be the effect or the level left
[4] = molecular target: T1, Prostaglandin G/H synthase 2 (Homo sapiens) (UniProt P35354); assay: Inhibition of recombinant human COX2 at 50 uM using arachidonic acid as substrate by ELISA
T1 sequence (whole entry): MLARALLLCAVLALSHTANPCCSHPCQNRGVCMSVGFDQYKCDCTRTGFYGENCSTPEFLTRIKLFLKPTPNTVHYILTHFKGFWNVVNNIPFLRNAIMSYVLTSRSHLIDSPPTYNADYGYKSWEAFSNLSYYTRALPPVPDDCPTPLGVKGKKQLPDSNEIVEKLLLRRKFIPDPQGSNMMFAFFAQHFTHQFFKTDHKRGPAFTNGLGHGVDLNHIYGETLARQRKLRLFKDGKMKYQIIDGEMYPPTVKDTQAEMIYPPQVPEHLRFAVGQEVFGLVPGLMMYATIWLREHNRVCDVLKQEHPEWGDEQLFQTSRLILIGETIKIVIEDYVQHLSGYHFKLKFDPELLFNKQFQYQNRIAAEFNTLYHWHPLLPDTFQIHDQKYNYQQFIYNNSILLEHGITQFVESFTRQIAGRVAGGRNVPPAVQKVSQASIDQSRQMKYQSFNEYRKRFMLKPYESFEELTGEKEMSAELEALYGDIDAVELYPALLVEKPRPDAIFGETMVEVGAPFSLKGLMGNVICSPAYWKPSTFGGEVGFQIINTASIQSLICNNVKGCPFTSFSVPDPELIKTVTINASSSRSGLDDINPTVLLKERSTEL

Mus musculus [5] = assay: Antihyperlipidemic activity in HDF/STZ-induced obesity-diabetes type 2 SKH-2 mouse model assessed as increase in plasma HDL/LDL ratio at 56 umol/kg, ip administered twice daily measured on day 22 and day 53 relative to untreated control; type: functional
Mus musculus [6] = assay: Antihyperlipidemic activity in HDF/STZ-induced obesity-diabetes type 2 SKH-2 mouse model assessed as decrease in plasma triglyceride levels at 56 umol/kg, ip administered twice daily measured on day 22 and day 53 relative to untreated control; type: functional; parameters: scale not given: the % may be the effect or the level left
Mus musculus [7] = assay: Anti-diabetic activity in HDF/STZ-induced obesity-diabetes type 2 SKH-2 mouse model assessed as reversal of glucose increase at 56 umol/kg, ip administered twice daily until 53 days measured every 5 to 10 days from day 27 to 53; type: functional, organism-based
Mus musculus [8] = assay: Antihypercholesterolemic activity in HDF/STZ-induced obesity-diabetes type 2 SKH-2 mouse model assessed as decrease in plasma total cholestrol levels at 56 umol/kg, ip administered twice daily measured on day 22 and day 53 relative to untreated control; type: functional; parameters: scale not given: the % may be the effect or the level left
[9] = molecular target: T2, Prostaglandin G/H synthase 1 (Ovis aries) (UniProt P05979); assay: Inhibition of ovine COX1 at 50 uM using arachidonic acid as substrate by ELISA
T2 sequence (whole entry): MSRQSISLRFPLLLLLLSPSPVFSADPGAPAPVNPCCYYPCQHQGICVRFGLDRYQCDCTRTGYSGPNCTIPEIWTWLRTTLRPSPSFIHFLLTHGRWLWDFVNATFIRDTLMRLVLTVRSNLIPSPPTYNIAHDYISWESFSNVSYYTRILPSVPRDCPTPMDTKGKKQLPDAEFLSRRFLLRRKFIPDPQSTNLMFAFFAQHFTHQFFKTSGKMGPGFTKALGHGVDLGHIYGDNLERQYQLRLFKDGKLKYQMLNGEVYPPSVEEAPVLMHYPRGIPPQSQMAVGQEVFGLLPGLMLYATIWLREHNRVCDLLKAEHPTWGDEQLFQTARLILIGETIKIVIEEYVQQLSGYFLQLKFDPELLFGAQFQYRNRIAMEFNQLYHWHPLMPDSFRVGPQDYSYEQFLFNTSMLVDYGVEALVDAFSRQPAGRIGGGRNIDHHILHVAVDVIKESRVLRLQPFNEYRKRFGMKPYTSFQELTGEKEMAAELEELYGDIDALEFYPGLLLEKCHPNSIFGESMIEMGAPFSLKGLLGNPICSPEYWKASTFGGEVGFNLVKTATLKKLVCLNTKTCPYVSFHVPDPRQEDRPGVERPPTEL

Mus musculus [10] = assay: Antihypercholesterolemic activity in HDF/STZ-induced obesity-diabetes type 2 SKH-2 mouse model assessed as increase in plasma HDL levels at 56 umol/kg, ip administered twice daily measured on day 22 and day 53 relative to untreated control; type: functional, organism-based
Squalene synthase = molecular target: T3, Squalene synthase (Rattus norvegicus, UniProt Q02769); assay: Inhibition of SQS in rat microsomes using [3H]-FPP as substrate preincubated for 10 mins followed by substrate addition measured after 30 mins by scintillation counting
T3 sequence (Q02769 whole entry): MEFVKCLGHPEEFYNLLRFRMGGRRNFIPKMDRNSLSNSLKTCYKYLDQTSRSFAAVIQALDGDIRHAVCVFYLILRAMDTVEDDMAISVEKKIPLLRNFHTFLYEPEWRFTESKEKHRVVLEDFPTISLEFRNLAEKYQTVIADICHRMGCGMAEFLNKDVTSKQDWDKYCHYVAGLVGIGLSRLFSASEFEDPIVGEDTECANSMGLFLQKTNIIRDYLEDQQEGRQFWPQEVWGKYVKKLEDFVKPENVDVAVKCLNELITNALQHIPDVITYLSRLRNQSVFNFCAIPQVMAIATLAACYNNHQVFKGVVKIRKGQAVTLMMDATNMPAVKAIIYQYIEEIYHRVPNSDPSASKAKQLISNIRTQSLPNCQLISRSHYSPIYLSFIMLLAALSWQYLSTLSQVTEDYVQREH

Mus musculus [11] = assay: Anti-diabetic activity in HDF/STZ-induced obesity-diabetes type 2 SKH-2 mouse model assessed as reversal of body weight gain at 56 umol/kg, ip administered twice daily until 53 days measured once per week from 28th to 53 day post STZ challenge; type: functional, organism-based
[12] = molecular target: T2, Prostaglandin G/H synthase 1 (Ovis aries); assay: Inhibition of ovine COX1 at 20 uM using arachidonic acid as substrate by ELISA

Row | Structure (SMILES) | IC50 (Liver) [µM] | IC50 [1] [µM] | IC50 (Squalene synthase) [µM] | other results
1 | CN1CC(O)(c2ccc(-c3cc(C(C)(C)C)c(O)c(C(C)(C)C)c3)cc2)Sc2ccccc21 (centres undefined) | 6.5 | 34 | > 50 | Activity (Mus musculus [2]): inactive; Activity (Mus musculus [3]): 65%; inhibition [4]: inactive; fold change (FC) (Mus musculus [5]): 3; Activity (Mus musculus [6]): 55%; Activity (Mus musculus [7]): inactive; Activity (Mus musculus [8]): 31%; inhibition [9]: inactive; Activity (Mus musculus [10]): inactive
2 | CN1CC(O)(c2ccc(-c3ccc(O)cc3)cc2)Sc2ccccc21 (centres undefined) | 15 | 44 | 8.5 | 
3 | CN1CC(O)(c2ccc(-c3cc(C(C)(C)C)c(O)c(C(C)(C)C)c3)cc2)OC2CCCCC21 (centres undefined) | 5.9 | > 400 |  | Activity (Mus musculus [2]): Active; Activity (Mus musculus [3]): 95%; fold change (FC) (Mus musculus [5]): 7.5; Activity (Mus musculus [6]): inactive; Activity (Mus musculus [8]): 70%; Activity (Mus musculus [11]): Active; Activity (Mus musculus [10]): inactive
4 | CN1CC(O)(c2ccc(-c3ccccc3)cc2)Oc2ccc(-c3ccccc3)cc21 (centres undefined) | 4.9 | > 400 | > 50 | 
5 | CN1CC(O)(c2ccccc2)Sc2ccccc21 (centres undefined) | 8.2 | 183 | 28 | 
6 | CSc1ccccc1N(C)CC(=O)c1ccc(-c2ccccc2)cc1 | > 1000 | > 400 | > 50 | 
7 | Oc1ccc(/C=C/c2cc(O)cc(O)c2)cc1 [RESVERATROL] | 15 | 96 | > 50 | 
8 | CN1CC(O)(c2ccccc2)Oc2ccccc21 (centres undefined) | 7.6 | 152 | 50 | 
9 | CN1CC(O)(c2ccc(-c3ccc(C(F)(F)F)cc3)cc2)Sc2ccccc21 (centres undefined) | 14 | 171 | 14 | 
10 | CC(C)(Sc1cc(C(C)(C)C)c(O)c(C(C)(C)C)c1)Sc1cc(C(C)(C)C)c(O)c(C(C)(C)C)c1 [PROBUCOL] | > 1000 | 234 |  | 

Now from value to molecule, other results behind:

Row | IC50 (Liver) [µM] | IC50 [1] [µM] | IC50 (Squalene synthase) [µM] | Structure (SMILES) | other results
11 | 450 | > 400 |  | CN1CC(O)(c2ccc(-c3ccccc3)cc2)OC2CCCCC21 (centres undefined) | 
12 | 42 | > 400 |  | OC1(c2ccc(/C=C/c3ccccc3)cc2)CN2CCCCC2CO1 (centres undefined) | inhibition [4]: inactive; inhibition [9]: inactive
13 | 300 | > 400 | 33 | CN1CCOC(O)(c2ccc(-c3ccccc3)cc2)C1 (centres undefined) | inhibition [4]: 100%; inhibition [9]: 38%
14 | 110 | > 400 | 7 | CN1CCOC(O)(c2ccc(/C=C/c3ccccc3)cc2)C1 (centres undefined) | 
15 | 83 | 271 | 16.5 | CN1CC(O)(c2ccc(-c3ccccc3)cc2)SC2CCCCC21 (centres undefined) | inhibition [12]: 89%
16 | 350 | > 400 | 35 | OC1(c2ccc(-c3ccccc3)cc2)CN2CCCCC2CO1 (centres undefined) | 
17 | 45 | > 400 |  | CN1CC(O)(c2ccc(/C=C/c3ccccc3)cc2)OC2CCCCC21 (centres undefined) | inhibition [4]: inactive; inhibition [9]: inactive
